system: myotubes induced from urine-derived cells obtained from 4 healthy subjects; assay: Promotion of myotube induction, Western blotting of myosin heavy chain and dystrophin; type: cell-based, human; details: in the presence of DZNep; urine-derived cells from 4 healthy subjects
Experimental: (§1) The MYOD1-positive urine-derived cells were plated onto a collagen-coated culture dish or plate and cultured in a differentiation medium supplemented with doxycycline (e.g., 1 μg/ml) (the medium containing high-glucose-containing DMEM with GlutaMAX-I (Thermo Fisher Scientific; 10569-010), 5% horse serum, ITS Liquid Media Supplement (Sigma; 13146), and 1 μg/ml doxycycline) to induce the myotubes. Whether or not muscular differentiation could be promoted with the addition of a low molecular compound in a compound library (Sigma; S990043-EPI1) to the differentiation medium was examined. The low molecular compound was added at a final concentration of 0.1, 1, or 10 μM. Myotube induction was evaluated by immunocytochemistry and Western blotting.
The effects of DZNep on promoting myotube induction were also examined by Western blotting. […] The total protein concentration was measured using the BCA protein assay kit (Thermo Fisher Scientific; 23227), denaturation was performed using NuPAGE® LDS Sample Buffer (Thermo Fisher Scientific; NP0007), SDS-PAGE was performed on 3% to 8% NuPAGE® Novex Tris-Acetate Gel (Invitrogen; EA03785BOX), and the resultant was transferred onto a PVDF membrane (Millipore, Billerica, Mass., U.S.A.; IPVH304F0). […] After the antibody reaction, a band of interest was detected using the ECL Prime Western Blotting Detection Reagent (GE Healthcare, UK; RPN2232). […]

Row | Compound | dystrophin expression by Western blotting | myosin heavy chain expression by Western blotting
1 | Cl.Nc1nccc2c1ncn2[C@@H]1C=C(CO)[C@@H](O)[C@H]1O [DZNep, 3-deazaneplanocin A hydrochloride] | expressed at high levels | expressed at high levels

system: MYOD1-positive urine-derived cells; assay: Promotion of myotube induction by low molecular compounds, myosin heavy chain immunocytochemistry; type: cell-based, human; details: compound added to differentiation medium with doxycycline; FIG. 3A 1 μM, FIG. 3B 10 μM
Experimental: as §1
For immunocytochemistry, cultured cells were washed in PBS, fixed in 4% paraformaldehyde, and then incubated with the addition of 0.1% Triton-X at room temperature for 10 minutes. The anti-myosin heavy chain antibody (1:50, R&D, Minneapolis, U.S.A.; MAB4470) and the anti-dystrophin antibody (1:30, Novocastra, Newcastle, UK; NCL-DYS1) were used as primary antibodies, and Alexa Fluor 546 goat anti-mouse IgG (H+L) (1:300, Invitrogen; A11003) was used as a secondary antibody. Nuclear staining was performed with the use of Hoechst 33342. An image was obtained using a fluorescence microscope (BZ-9000 or BZ-X800, KEYENCE, Osaka, Japan) and analyzed using the BZ-X Analyzer (KEYENCE).
As a result, it was founded that a degree of muscular differentiation evaluated in terms of the myosin heavy chain protein expression level by immunocytochemistry was enhanced to a significant extent with the addition of the epigenetic regulatory compound(s) to the differentiation medium (FIGS. 3 and 4). […] Also, effects of histone methyltransferase inhibitors (GSK343, SGC707, furamidine dihydrochloride, UNC2327, E7438, and MI-2 (menin-MLL inhibitor)), histone demethylase inhibitors (IOX 1 and GSK-J1), histone deacetylase (HDAC) inhibitors (VORINOSTAT, LMK-235, CAY10603, and BRD73954), SIRT2 inhibitor (SirReal 2), and PARP inhibitor (EB47) were observed. In FIG. 3, a horizontal axis represents a type of a compound added, and a vertical axis represents an area of a myosin heavy chain-positive region determined by immunocytochemistry. […] Statistical analysis was performed by a Kruskal-Wallis test at a significance level of p<0.05. “*,” “**,” and “***” indicate p<0.05, p<0.01, and p<0.001, respectively.

Row | Compound | degree of muscular differentiation evaluated in terms of the myosin heavy chain protein expression level by immunocytochemistry
2 | Cc1cc(C)nc(SCC(=O)Nc2ncc(Cc3cccc4ccccc34)s2)n1 [SirReal 2] | observed
3 | O=C(CCCCCCC(=O)Nc1ccccc1)NO [VORINOSTAT] | observed
4 | CCN(c1cc(-c2ccc(CN3CCOCC3)cc2)cc(C(=O)NCc2c(C)cc(C)[nH]c2=O)c1C)C1CCOCC1 [E7438] | observed
5 | CCCc1cc(C)[nH]c(=O)c1CNC(=O)c1cc(-c2ccnc(N3CCN(C)CC3)c2)cc2c1cnn2C(C)C [GSK343] | observed
6 | UNC2327 | observed
7 | Cl.Nc1nccc2c1ncn2[C@@H]1C=C(CO)[C@@H](O)[C@H]1O [DZNep, 3-deazaneplanocin A hydrochloride] | high
8 | Cl.Cl.Nc1ncnc2c1ncn2[C@@H]1O[C@H](C(=O)N2CCN(CC(=O)Nc3cccc4c3CNC4=O)CC2)[C@@H](O)[C@H]1O [EB47] | observed
9 | O=C(O)c1ccc(O)c2ncccc12 [IOX 1] | observed
10 | O=C(O)CCNc1cc(N2CCc3ccccc3CC2)nc(-c2ccccn2)n1 [GSK-J1] | observed
11 | CCCc1cc2c(N3CCN(C4=NCC(C)(C)S4)CC3)ncnc2s1 [MI-2 (menin-MLL inhibitor)] | observed
12 | Cc1cc(C)cc(C(=O)NOCCCCCC(=O)NO)c1 [LMK-235] | observed
13 | O=C(NO)c1cccc(C(=O)NCCc2ccccc2)c1 [BRD73954] | observed
14 | O=C(NCC(=O)N1CCCC1)Nc1ccc2cnccc2c1 [SGC707] | observed
15 | CC(C)(C)OC(=O)Nc1ccc(-c2cc(C(=O)NCCCCCCC(=O)NO)no2)cc1 [CAY10603] | observed
